{"source": "patent US12721818B2", "about": "“Compositions and methods for delivery of RNA” (Rejuvenation Technologies Inc., priority 2021, dated 2026)", "assay": "pK of the ionizable lipid (Table 6A)", "format": "physicochemical", "conditions": "ionizable lipid of the Table 6A formulation", "data": [{"compound": "CCCCCCCC/C=C\\CCCCCCCC(=O)Oc1ccc(CC(=O)OCCC2CCN(CCSSCCN3CCC(CCOC(=O)Cc4ccc(OC(=O)CCCCCCC/C=C\\CCCCCCCC)cc4)CC3)CC2)cc1", "note": "[SS-OP]", "values": [{"measurement": "pK", "value": "~6.4"}]}]}
